The results in this text go back to US9422248B2 (University of Iowa Research Foundation, priority 2012, dated 2016).

Where “and” joins values, the source holds several entries; their conditions need not be identical. Equal values may be shown once. Read-outs that look alike come from different tables or passages of the source.

As usually defined, the ED50 is the dose that gives a 50% effect, or the effect in half of the subjects. One may read the TD50 as the dose at which the toxic effect under study appears in half of the subjects. A higher TD50 goes with harm only at a large dose.

The subject of data set [1] is maximal electroshock (MES) model. Put plainly: maximal electroshock (MES) model. Type of data set: in vivo, mouse. Particulars: for responders at 30 mg/kg / responders at 100 mg/kg / responders at 300 mg/kg: Mus musculus, MES; for responders at 30 mg/kg: 30 mg/kg ip; for responders at 30 mg/kg / responders at 300 mg/kg: read-out: number of animals protected/number of animals tested; for responders at 100 mg/kg: 100 mg/kg ip, read-out: number of animals protected/number of animals tested (converted); for responders at 300 mg/kg: 300 mg/kg ip. An excerpt: (§1) All compounds (FIG. 1) were screened in three whole mouse models: the maximal electroshock model (MES), the scMET test (pentylenetetrazole, Metrazol), and the 6 Hz psychomotor seizure model of partial epilepsy (32 mA). Adult male CF No 1 albino mice (26-30 g) were used for the 6 Hz test and 18-25 g mice were used in the MES and scMet tests. The animals are housed, fed, and handled in a manner consistent with the recommendations in the National Council Publication, “Guide for the Care and Use of Laboratory Animals”. The animal studies were performed by the NINDS Anticonvulsant Screening Program under IACUC number 09-12014. All compounds were administered ip in polyethylene glycol, 30%.
(§2) The MES model, which generates generalized tonic-clonic seizures, involved pretreating mice with experimental compound, and administering 60 Hz of alternating current (50 mA) for 2 s via corneal electrodes. Prior to current administration, the animal's corneas were treated topically with 1% tetracaine. Animals are considered protected if the hindlimb tonic extensor component is absent. The scMET test was done by pretreating mice with experimental compound and administering 85 mg/kg Metrazol into the loose folds of the skin in the midline of the neck. Eighty-five mg/kg Metrazol is the dose that causes seizures in 97% (CD97) of control animals.
(In general: The maximal electroshock test induces tonic seizures with an electrical stimulus.)

A further data set deals with 6 Hz (32 mA) model. Nature of the data set: 6 Hz (32 mA) psychomotor seizure model of partial epilepsy. Type of data set: in vivo, mouse. Particulars: for ED50: ip; for complete protection, animals: 6 Hz, one or more time points from 0.25 or 1 h; for antiseizure activity in the 6 Hz model: mouse, in vivo; for Protective effects, number of animals protected/number of animals tested: 100 mg/kg ip.
Description: as §1
The 6 Hz test (also known as the minimal clonic seizure, or psychomotor test) involved delivering a corneal stimulus of 32 mA for 3 s. This current elicits psychomotor seizures in 97% of untreated animals. Seizures consist of a minimal clonic phase followed by stereotyped automatistic behaviors. Animals not showing such behaviors were considered protected. Toxicity was determined by the rotorod test. For this test, the animal is placed on a rotorod at 6 rpm following dosing. The animal is considered toxic if it falls off the rotorod three times in a 1 min period. The ED50, TD50 and confidence intervals were determined by probit analysis.

The test system of data set [2] is scMET model (pentylenetetrazole, Metrazol). Put plainly: scMET test (subcutaneous Metrazol). Format: in vivo, mouse. As to conditions: for responders at 30 mg/kg / responders at 100 mg/kg / responders at 300 mg/kg: Mus musculus, scMET, read-out: number of animals protected/number of animals tested; for responders at 30 mg/kg: 30 mg/kg ip; for responders at 100 mg/kg: 100 mg/kg ip; for responders at 300 mg/kg: 300 mg/kg ip.
Description: as §1, §2

The next data set concerns rotorod test. Nature of the data set: Toxicity by the rotorod test. Format: in vivo. Particulars: for TD50: rotorod, ip, probit analysis. An excerpt: All compounds (FIG. 1) were screened in three whole mouse models: the maximal electroshock model (MES), the scMET test (pentylenetetrazole, Metrazol), and the 6 Hz psychomotor seizure model of partial epilepsy (32 mA). Adult male CF No 1 albino mice (26-30 g) were used for the 6 Hz test and 18-25 g mice were used in the MES and scMet tests. The animals are housed, fed, and handled in a manner consistent with the recommendations in the National Council Publication, “Guide for the Care and Use of Laboratory Animals”. […] All compounds were administered ip in polyethylene glycol, 30%.
The 6 Hz test (also known as the minimal clonic seizure, or psychomotor test) involved delivering a corneal stimulus of 32 mA for 3 s. […] Seizures consist of a minimal clonic phase followed by stereotyped automatistic behaviors. Animals not showing such behaviors were considered protected. Toxicity was determined by the rotorod test. For this test, the animal is placed on a rotorod at 6 rpm following dosing. The animal is considered toxic if it falls off the rotorod three times in a 1 min period. The ED50, TD50 and confidence intervals were determined by probit analysis.

Where [3] appears, read: Mus musculus, 6 Hz (32 mA), probit analysis, read-out: ED50.

In the case of `CCC(C)c1cc(C(O)C(F)(F)F)ccc1O` (stereo not drawn) [RM131, 2-sec-Butyl-4-(2,2,2-trifluoro-1-hydroxy-ethyl)-phenol], in data set [1] (300 mg/kg dose), the “MES protection” value was “some protection”. Moreover, the “MES protection, time points after dosing” value in data set [1] (300 mg/kg dose) was “protected only at 0.5 h”. Besides, the responders at 30 mg/kg in data set [1] (0.5 h), in data set [1] (4 h), in data set [2] (0.5 h) and in data set [2] (4 h) was 0% in each case. Moreover, the responders at 100 mg/kg in data set [1] (0.5 h), in data set [1] (4 h), in data set [2] (0.5 h) and in data set [2] (4 h) was 0% in each case. Further, the responders at 300 mg/kg in data set [1] (0.5 h) is 100%; in data set [1] (4 h) it was 0%; in data set [2] (0.5 h), 100%; in data set [2] (4 h), 0%. Further, the ED50 is 53.85 mg/kg with 6 Hz (32 mA) model (6 Hz (32 mA), probit analysis) and 53.8 mg/kg with 6 Hz (32 mA) model (setting [3]). For the same molecule, in the data set with 6 Hz (32 mA) model (100 mg/kg), the “complete protection, animals” value is listed as 4 of 4. The “antiseizure activity in the 6 Hz model” value with 6 Hz (32 mA) model is recorded as “relatively good antiseizure activity”. The TD50 in the data set with rotorod test is 86 mg/kg and 86.04 mg/kg.
As to `CCc1cc(C(O)C(F)(F)F)ccc1O` (stereo not drawn) [RM166, 2-Ethyl-4-(2,2,2-trifluoro-1-hydroxy-ethyl)-phenol], the responders at 30 mg/kg in data set [1] (0.5 h), in data set [1] (4 h), in data set [2] (0.5 h) and in data set [2] (4 h) was 0% each time. In addition, the responders at 100 mg/kg in data set [1] (0.5 h), in data set [1] (4 h), in data set [2] (0.5 h) and in data set [2] (4 h) was 0% each time. For the same molecule, the responders at 300 mg/kg in data set [1] (0.5 h), in data set [1] (4 h), in data set [2] (0.5 h) and in data set [2] (4 h) was 0% each time. Besides, in data set [1] (any dose (30-300 mg/kg ip)), the “MES protection” value is given as “no MES protection”. Further, the “protective effects in the 6 Hz test” value with 6 Hz (32 mA) model (100 mg/kg, any time point from 0.25 to 4 h) is reported as “no protective effects”. Also, the “Protective effects, number of animals protected/number of animals tested” value is listed as 0/4 in the data set on 6 Hz (32 mA) model (6 Hz (32 mA), 0.25 h); 0/4 in the data set with 6 Hz (32 mA) model (6 Hz (32 mA), 0.5 h); 0/4 with 6 Hz (32 mA) model (6 Hz (32 mA), 1 h); 0/4 in the data set on 6 Hz (32 mA) model (6 Hz (32 mA), 2 h); 1/4 with 6 Hz (32 mA) model (6 Hz (32 mA), 4 h). Besides, the “Toxicity, animals/number of animals tested” value was 0/8 in the data set on rotorod test (dose 100 mg/kg ip, 0.5 h); 0/4 in the data set with rotorod test (dose 100 mg/kg ip, 4 h); 0/4 with rotorod test (dose 30 ip, 0.5 h); 0/2 in the data set with rotorod test (dose 30 ip, 4 h); 0/4 in the data set with rotorod test (dose 300 ip, 0.5 h); 0/2 with rotorod test (dose 300 ip, 4 h). Also, the “evidence of toxicity” value with rotorod test (doses up to 300 mg/kg) was “Neither RM170 nor RM166 showed any evidence of toxicity”.
With `CC(C)c1cc(C(O)C(F)(F)F)cc(Br)c1O` (stereo not drawn) [RM122, 2-Bromo-6-isopropyl-4-(2,2,2-trifluoro-1-hydroxy-ethyl)-phenol], the responders at 30 mg/kg in data set [1] (0.5 h), in data set [1] (4 h), in data set [2] (0.5 h) and in data set [2] (4 h) was 0% in each case. Further, the responders at 100 mg/kg in data set [1] (0.5 h), in data set [1] (4 h), in data set [2] (0.5 h) and in data set [2] (4 h) was 0% in each case. Also, the responders at 300 mg/kg in data set [1] (0.5 h), in data set [1] (4 h), in data set [2] (0.5 h) and in data set [2] (4 h) was 0% in each case. Also, in data set [1] (any dose (30-300 mg/kg ip)), the “MES protection” value is “no MES protection”. Further, the ED50 in the data set with 6 Hz (32 mA) model (6 Hz (32 mA), probit analysis) is 112.45 mg/kg; in the data set with 6 Hz (32 mA) model (setting [3]) it was 112 mg/kg. The “complete protection, animals” value in the data set with 6 Hz (32 mA) model (100 mg/kg) is reported as 4 of 4. For the same molecule, the TD50 in the data set on rotorod test is 403 mg/kg and 403.12 mg/kg.
Regarding `CC(C)c1cc(C(O)C(F)(F)F)ccc1O` (stereo not drawn) [RM125, 2-iso-Propyl-4-(2,2,2-trifluoro-1-hydroxy-ethyl)-phenol], the “MES protection” value in data set [1] (300 mg/kg dose) is “some protection”. Moreover, in data set [1] (300 mg/kg dose), the “MES protection, time points after dosing” value is “protection at both 0.5 and 4 h”. For the same molecule, the responders at 30 mg/kg in data set [1] (0.5 h), in data set [1] (4 h), in data set [2] (0.5 h) and in data set [2] (4 h) was 0% each time. Further, the responders at 100 mg/kg in data set [1] (0.25 h) was 0%; in data set [1] (0.5 h), 0%; in data set [1] (1 h) it was 33.3%; in data set [1] (2 h), 33.3%; in data set [1] (4 h), 0%; in data set [1] (6 h), 0%. Further, the responders at 100 mg/kg in data set [2] (0.5 h) and in data set [2] (4 h) was 0% each time. Also, the responders at 300 mg/kg in data set [1] (0.5 h), in data set [1] (4 h), in data set [2] (0.5 h) and in data set [2] (4 h) was 100% throughout. Further, the ED50 is 84.12 mg/kg in the data set with 6 Hz (32 mA) model (6 Hz (32 mA), probit analysis) and 84 mg/kg in the data set on 6 Hz (32 mA) model (setting [3]). Further, the “complete protection, animals” value in the data set on 6 Hz (32 mA) model (100 mg/kg) is reported as 4 of 4. Moreover, the “antiseizure activity in the 6 Hz model” value in the data set on 6 Hz (32 mA) model was “relatively good antiseizure activity”. Also, in data set [2] (300 mg/kg dose), the “scMET protection, time points after dosing” value was “protection at the highest 300 mg/kg dose at 0.5 and 4 h”. Moreover, the TD50 with rotorod test came out at 161.12 mg/kg.
On to `CCC(C)c1cc(C(O)C(F)(F)F)cc(Br)c1O` (stereo not drawn) [RM129, 2-Bromo-6-sec-Butyl-4-(2,2,2-trifluoro-1-hydroxy-ethyl)-phenol], for which the “MES protection” value in data set [1] (300 mg/kg dose) is given as “some protection”. Further, in data set [1] (300 mg/kg dose), the “MES protection, time points after dosing” value was “protected only at 0.5 h”. Also, the responders at 30 mg/kg in data set [1] (0.5 h), in data set [1] (4 h), in data set [2] (0.5 h) and in data set [2] (4 h) was 0% in each case. For the same molecule, the responders at 100 mg/kg in data set [1] (0.25 h), in data set [1] (0.5 h), in data set [1] (1 h), in data set [1] (4 h), in data set [2] (0.5 h) and in data set [2] (4 h) was 0% throughout. Besides, the responders at 300 mg/kg turned out to be 100% in data set [1] (0.5 h), 0% in data set [1] (4 h), 0% in data set [2] (0.5 h) and 0% in data set [2] (4 h). The “complete protection, animals” value with 6 Hz (32 mA) model (100 mg/kg) was 4 of 4. In the data set on 6 Hz (32 mA) model (Mus musculus), the ED50 was 87.6 mg/kg. The same molecule came in with a TD50 in the data set on rotorod test of 144.4 mg/kg.
